Laboratory results: publication PMC5458547, “Discovery of first-in-class reversible dual small molecule inhibitors against G9a and DNMTs in hematological malignancies” (Nature Communications, 2017)

Tests used:
CDK11 = target: T1, CDK11 (Homo sapiens, UniProt Q9BWU1); experiment: KINOMEscan kinase profiling; format: binding; settings: read-out: Percent Control
T1 construct: purchased DiscoverX KINOMEscan (kinases); BPS Bioscience (epigenetic targets)
Protocol: precipitate the proteins. The mixture was then agitated for 5 min and centrifuged at 13200 rpm for 10 min at 4 °C. A 5 µL aliquot of the resulting supernatant was injected onto the LC-MS/MS system for analysis.
Frozen plasma samples were thawed at room temperature, vortexed thoroughly and subjected to the above described extraction procedure.
The pharmacokinetic parameters were obtained by fitting the blood concentration-time data to a non-compartmental model with the WinNonlin software (Pharsight, Mountain View, CA). […]
concentration-time profile for a dosing regimen of 2.5 mg/kg administered intravenously every 24 h for 3 weeks was simulated with Winnonlin.
(§1) Kinase Selectivity Profiling
(§2) (out of which 90 are non-mutant kinases) was performed at DiscoverRx (http://www.discoverx.com/home) using the KINOMEscan™ screening platform at a test concentration of 10 µM. Results for primary screen […]
(§3) positive control signal) / (negative control signal – positive control signal) *100, where negative control corresponds to DMSO treatment (100%) and positive control to the signal obtained with a control competitive compound (0%). […]
using the Hill equation. […]
MicroScale Thermophoresis (MST) was performed to quantify biomolecular interactions between CM-579 and DNMT1 (full length). […]
Cell proliferation was analyzed using the CellTiter 96 Aqueous One Solution Cell Proliferation Assay (Promega, Madison, W). […]

SNARK = target: T2, SNARK (Homo sapiens, UniProt Q9H093); experiment: KINOMEscan kinase profiling; format: binding; settings: read-out: Percent Control
T2 construct: purchased DiscoverX KINOMEscan (kinases); BPS Bioscience (epigenetic targets)
Protocol: as §1, §2, §3
(§4) using the Hill equation. Each target was assayed in duplicate. […]

MKNK1 = target: T3, MKNK1 (Homo sapiens, UniProt Q9BUB5); experiment: KINOMEscan kinase profiling; format: binding; settings: read-out: Percent Control
T3 construct: purchased DiscoverX KINOMEscan (kinases); BPS Bioscience (epigenetic targets)
Protocol: as §1, §2, §3, §4

FGFR2 = target: T4, FGFR2 (Homo sapiens, UniProt P21802); experiment: KINOMEscan kinase profiling; format: binding; settings: read-out: Percent Control
T4 construct: purchased DiscoverX KINOMEscan (kinases); BPS Bioscience (epigenetic targets)
Protocol: as §1, §2, §3, §4

MAPKAPK2 = target: T5, MAPKAPK2 (Homo sapiens, UniProt P49137); experiment: KINOMEscan kinase profiling; format: binding; settings: read-out: Percent Control
T5 construct: purchased DiscoverX KINOMEscan (kinases); BPS Bioscience (epigenetic targets)
Protocol: as §1, §2, §3, §4

PIK3C2B = target: T6, PIK3C2B (Homo sapiens, UniProt O00750); experiment: KINOMEscan kinase profiling; format: binding; settings: read-out: Percent Control
T6 construct: purchased DiscoverX KINOMEscan (kinases); BPS Bioscience (epigenetic targets)
Protocol: as §1, §2, §3, §4

TIE2 = target: T7, TIE2 (Homo sapiens, UniProt Q02763); experiment: KINOMEscan kinase profiling; format: binding; settings: read-out: Percent Control
T7 construct: purchased DiscoverX KINOMEscan (kinases); BPS Bioscience (epigenetic targets)
Protocol: as §1, §2, §3, §4

PDPK1 = target: T8, PDPK1 (Homo sapiens, UniProt O15530); experiment: KINOMEscan kinase profiling; format: binding; settings: read-out: Percent Control
T8 construct: purchased DiscoverX KINOMEscan (kinases); BPS Bioscience (epigenetic targets)
Protocol: as §1, §2, §3, §4

JNK3 = target: T9, JNK3 (Homo sapiens, UniProt P53779); experiment: KINOMEscan kinase profiling; format: binding; settings: read-out: Percent Control
T9 construct: purchased DiscoverX KINOMEscan (kinases); BPS Bioscience (epigenetic targets)
Protocol: as §1, §2, §3, §4

ERK1 = target: T10, ERK1 (Homo sapiens, UniProt P27361); experiment: KINOMEscan kinase profiling; format: binding; settings: read-out: Percent Control
T10 construct: purchased DiscoverX KINOMEscan (kinases); BPS Bioscience (epigenetic targets)
Protocol: as §1, §2, §3, §4

ABL1-nonphosphorylated = target: T11, ABL1-nonphosphorylated (Homo sapiens, UniProt P00519); experiment: KINOMEscan kinase profiling; format: binding; settings: read-out: Percent Control
T11 construct: purchased DiscoverX KINOMEscan (kinases); BPS Bioscience (epigenetic targets)
Protocol: as §1, §2, §3, §4

BTK = target: T12, BTK (Homo sapiens, UniProt Q06187); experiment: KINOMEscan kinase profiling; format: binding
T12 construct: purchased DiscoverRx (KINOMEscan contract screen)
Protocol: as §1, §2, §3, §4

DYRK1B = target: T13, DYRK1B (Homo sapiens, UniProt Q9Y463); experiment: KINOMEscan kinase profiling; format: binding; settings: read-out: Percent Control
T13 construct: purchased DiscoverX KINOMEscan (kinases); BPS Bioscience (epigenetic targets)
Protocol: as §1, §2, §3, §4

MEK2 = target: T14, MEK2 (Homo sapiens, UniProt P36507); experiment: KINOMEscan kinase profiling; format: binding; settings: read-out: Percent Control
T14 construct: purchased DiscoverX KINOMEscan (kinases); BPS Bioscience (epigenetic targets)
Protocol: as §1, §2, §3, §4

TGFBR1 = target: T15, TGFBR1 (Homo sapiens, UniProt P36897); experiment: KINOMEscan kinase profiling; format: binding; settings: read-out: Percent Control
T15 construct: purchased DiscoverX KINOMEscan (kinases); BPS Bioscience (epigenetic targets)
Protocol: as §1, §2, §3, §4

CDK7 = target: T16, CDK7 (Homo sapiens, UniProt P50613); experiment: KINOMEscan kinase profiling; format: binding; settings: read-out: Percent Control
T16 construct: purchased DiscoverX KINOMEscan (kinases); BPS Bioscience (epigenetic targets)
Protocol: as §1, §2, §3, §4

IKK-alpha = target: T17, IKK-alpha (Homo sapiens, UniProt O15111); experiment: KINOMEscan kinase profiling; format: binding; settings: read-out: Percent Control
T17 construct: purchased DiscoverX KINOMEscan (kinases); BPS Bioscience (epigenetic targets)
Protocol: as §1, §2, §3, §4

PAK1 = target: T18, PAK1 (Homo sapiens, UniProt Q13153); experiment: KINOMEscan kinase profiling; format: binding; settings: read-out: Percent Control
T18 construct: purchased DiscoverX KINOMEscan (kinases); BPS Bioscience (epigenetic targets)
Protocol: as §1, §2, §3, §4

KIT = target: T19, KIT (Homo sapiens, UniProt P10721); experiment: KINOMEscan kinase profiling; format: binding; settings: read-out: Percent Control
T19 construct: purchased DiscoverX KINOMEscan (kinases); BPS Bioscience (epigenetic targets)
Protocol: as §1, §2, §3, §4

RAF1 = target: T20, RAF1 (Homo sapiens, UniProt P04049); experiment: KINOMEscan kinase profiling; format: binding; settings: read-out: Percent Control
T20 construct: purchased DiscoverX KINOMEscan (kinases); BPS Bioscience (epigenetic targets)
Protocol: as §1, §2, §3, §4

PIM3 = target: T21, PIM3 (Homo sapiens, UniProt Q86V86); experiment: KINOMEscan kinase profiling; format: binding; settings: read-out: Percent Control
T21 construct: purchased DiscoverX KINOMEscan (kinases); BPS Bioscience (epigenetic targets)
Protocol: as §1, §2, §3, §4

IKK-beta = target: T22, IKK-beta (Homo sapiens, UniProt O14920); experiment: KINOMEscan kinase profiling; format: binding; settings: read-out: Percent Control
T22 construct: purchased DiscoverX KINOMEscan (kinases); BPS Bioscience (epigenetic targets)
Protocol: as §1, §2, §3, §4

VEGFR2 = target: T23, VEGFR2 (Homo sapiens, UniProt P35968); experiment: KINOMEscan kinase profiling; format: binding; settings: read-out: Percent Control
T23 construct: purchased DiscoverX KINOMEscan (kinases); BPS Bioscience (epigenetic targets)
Protocol: as §1, §2, §3, §4

EGFR = target: T24, EGFR (Homo sapiens, UniProt P00533); experiment: KINOMEscan kinase profiling; format: binding; settings: read-out: Percent Control
T24 construct: purchased DiscoverX KINOMEscan (kinases); BPS Bioscience (epigenetic targets)
Protocol: as §1, §2, §3, §4

RT-4 = experiment: Cell proliferation assay (MTS); format: cell-based; settings: Homo sapiens, Bladder
PFEIFFER = experiment: Cell proliferation assay (MTS); format: cell-based; settings: Homo sapiens, GC-DLBCL, 48 h
UM-UC-1 = experiment: Cell proliferation assay (MTS); format: cell-based; settings: Homo sapiens; Bladder
J82 = experiment: Cell proliferation assay (MTS); format: cell-based; settings: Homo sapiens, Bladder
hERG potassium channels = target: T25, hERG potassium channels (Homo sapiens, UniProt Q12809); experiment: hERG blockade assay (Predictor fluorescence polarization); settings: read-out: hERG binding IC50
T25 construct: purchased Life technologies PV5365

T12 sequence (Q06187 whole entry): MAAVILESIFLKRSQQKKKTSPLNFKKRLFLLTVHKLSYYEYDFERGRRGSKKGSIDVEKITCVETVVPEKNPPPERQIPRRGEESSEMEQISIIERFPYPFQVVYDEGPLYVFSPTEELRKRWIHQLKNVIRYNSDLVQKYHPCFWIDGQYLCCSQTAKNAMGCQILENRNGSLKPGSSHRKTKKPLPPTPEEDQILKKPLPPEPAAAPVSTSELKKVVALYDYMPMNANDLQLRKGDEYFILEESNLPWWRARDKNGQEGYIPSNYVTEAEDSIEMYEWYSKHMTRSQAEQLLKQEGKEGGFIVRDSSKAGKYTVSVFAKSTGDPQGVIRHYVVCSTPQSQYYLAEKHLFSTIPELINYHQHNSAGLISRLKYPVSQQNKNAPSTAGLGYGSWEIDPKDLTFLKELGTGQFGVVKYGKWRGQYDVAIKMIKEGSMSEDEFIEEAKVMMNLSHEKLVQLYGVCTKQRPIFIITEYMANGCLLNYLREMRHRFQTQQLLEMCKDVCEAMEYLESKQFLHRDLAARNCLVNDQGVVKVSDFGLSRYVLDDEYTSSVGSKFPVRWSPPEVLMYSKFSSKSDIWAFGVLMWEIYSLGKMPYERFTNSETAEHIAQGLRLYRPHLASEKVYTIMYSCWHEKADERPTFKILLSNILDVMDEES
T11 sequence (P00519 whole entry): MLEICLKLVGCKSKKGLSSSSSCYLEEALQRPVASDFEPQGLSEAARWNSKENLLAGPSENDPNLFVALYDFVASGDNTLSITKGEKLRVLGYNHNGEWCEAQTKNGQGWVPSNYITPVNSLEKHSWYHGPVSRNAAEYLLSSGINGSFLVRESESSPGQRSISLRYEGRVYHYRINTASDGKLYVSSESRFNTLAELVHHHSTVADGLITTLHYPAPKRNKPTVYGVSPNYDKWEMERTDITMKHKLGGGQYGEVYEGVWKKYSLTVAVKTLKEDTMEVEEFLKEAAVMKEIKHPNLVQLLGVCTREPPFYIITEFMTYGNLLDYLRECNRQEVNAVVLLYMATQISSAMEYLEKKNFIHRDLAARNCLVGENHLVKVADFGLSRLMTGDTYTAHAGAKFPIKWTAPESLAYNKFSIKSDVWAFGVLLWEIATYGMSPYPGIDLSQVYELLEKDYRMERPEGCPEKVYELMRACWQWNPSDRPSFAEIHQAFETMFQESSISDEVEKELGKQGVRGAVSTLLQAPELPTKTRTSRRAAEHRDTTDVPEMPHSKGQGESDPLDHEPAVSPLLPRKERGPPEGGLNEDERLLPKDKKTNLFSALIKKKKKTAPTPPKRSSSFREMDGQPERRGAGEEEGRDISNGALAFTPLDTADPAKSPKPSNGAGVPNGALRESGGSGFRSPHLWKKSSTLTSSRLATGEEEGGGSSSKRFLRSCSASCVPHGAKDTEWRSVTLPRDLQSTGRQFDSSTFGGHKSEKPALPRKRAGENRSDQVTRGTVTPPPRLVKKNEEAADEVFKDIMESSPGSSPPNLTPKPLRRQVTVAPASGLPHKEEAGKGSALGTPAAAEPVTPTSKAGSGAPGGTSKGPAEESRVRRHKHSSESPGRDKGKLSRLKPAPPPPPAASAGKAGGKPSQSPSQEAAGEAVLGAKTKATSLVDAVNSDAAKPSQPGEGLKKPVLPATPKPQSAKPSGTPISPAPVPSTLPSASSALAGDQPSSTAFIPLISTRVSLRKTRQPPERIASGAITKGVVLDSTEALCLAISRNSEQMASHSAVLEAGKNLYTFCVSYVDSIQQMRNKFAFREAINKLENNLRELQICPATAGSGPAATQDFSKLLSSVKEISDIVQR
T20 sequence (P04049 whole entry): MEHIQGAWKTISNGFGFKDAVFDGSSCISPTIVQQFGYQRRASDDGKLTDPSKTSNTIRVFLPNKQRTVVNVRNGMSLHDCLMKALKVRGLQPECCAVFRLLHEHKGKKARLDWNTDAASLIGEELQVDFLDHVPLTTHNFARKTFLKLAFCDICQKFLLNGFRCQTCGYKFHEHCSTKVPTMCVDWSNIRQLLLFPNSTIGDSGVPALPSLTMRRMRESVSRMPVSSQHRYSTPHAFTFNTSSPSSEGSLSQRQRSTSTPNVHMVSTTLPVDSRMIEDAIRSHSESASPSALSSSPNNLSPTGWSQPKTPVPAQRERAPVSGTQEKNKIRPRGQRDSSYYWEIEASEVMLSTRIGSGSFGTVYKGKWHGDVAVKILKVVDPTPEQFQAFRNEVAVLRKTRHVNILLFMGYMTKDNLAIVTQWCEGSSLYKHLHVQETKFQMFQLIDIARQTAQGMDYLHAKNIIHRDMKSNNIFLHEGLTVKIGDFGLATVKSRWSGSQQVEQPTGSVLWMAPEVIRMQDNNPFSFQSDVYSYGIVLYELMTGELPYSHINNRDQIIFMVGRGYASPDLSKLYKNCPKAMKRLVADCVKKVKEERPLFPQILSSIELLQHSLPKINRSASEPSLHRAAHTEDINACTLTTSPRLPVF
T9 sequence (P53779 whole entry): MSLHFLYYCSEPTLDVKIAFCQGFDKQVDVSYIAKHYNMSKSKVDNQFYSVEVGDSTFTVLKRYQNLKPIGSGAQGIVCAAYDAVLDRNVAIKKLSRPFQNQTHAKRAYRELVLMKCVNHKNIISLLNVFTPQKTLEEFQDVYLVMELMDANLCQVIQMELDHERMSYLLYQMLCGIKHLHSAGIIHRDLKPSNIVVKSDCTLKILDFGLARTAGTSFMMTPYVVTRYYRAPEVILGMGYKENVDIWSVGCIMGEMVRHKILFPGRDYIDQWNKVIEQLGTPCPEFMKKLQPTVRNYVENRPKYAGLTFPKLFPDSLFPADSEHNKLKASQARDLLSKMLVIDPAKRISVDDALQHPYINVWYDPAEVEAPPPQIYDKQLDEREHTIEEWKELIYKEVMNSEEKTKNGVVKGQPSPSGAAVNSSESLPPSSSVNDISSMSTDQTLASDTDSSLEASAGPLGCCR
T19 sequence (P10721 26-976): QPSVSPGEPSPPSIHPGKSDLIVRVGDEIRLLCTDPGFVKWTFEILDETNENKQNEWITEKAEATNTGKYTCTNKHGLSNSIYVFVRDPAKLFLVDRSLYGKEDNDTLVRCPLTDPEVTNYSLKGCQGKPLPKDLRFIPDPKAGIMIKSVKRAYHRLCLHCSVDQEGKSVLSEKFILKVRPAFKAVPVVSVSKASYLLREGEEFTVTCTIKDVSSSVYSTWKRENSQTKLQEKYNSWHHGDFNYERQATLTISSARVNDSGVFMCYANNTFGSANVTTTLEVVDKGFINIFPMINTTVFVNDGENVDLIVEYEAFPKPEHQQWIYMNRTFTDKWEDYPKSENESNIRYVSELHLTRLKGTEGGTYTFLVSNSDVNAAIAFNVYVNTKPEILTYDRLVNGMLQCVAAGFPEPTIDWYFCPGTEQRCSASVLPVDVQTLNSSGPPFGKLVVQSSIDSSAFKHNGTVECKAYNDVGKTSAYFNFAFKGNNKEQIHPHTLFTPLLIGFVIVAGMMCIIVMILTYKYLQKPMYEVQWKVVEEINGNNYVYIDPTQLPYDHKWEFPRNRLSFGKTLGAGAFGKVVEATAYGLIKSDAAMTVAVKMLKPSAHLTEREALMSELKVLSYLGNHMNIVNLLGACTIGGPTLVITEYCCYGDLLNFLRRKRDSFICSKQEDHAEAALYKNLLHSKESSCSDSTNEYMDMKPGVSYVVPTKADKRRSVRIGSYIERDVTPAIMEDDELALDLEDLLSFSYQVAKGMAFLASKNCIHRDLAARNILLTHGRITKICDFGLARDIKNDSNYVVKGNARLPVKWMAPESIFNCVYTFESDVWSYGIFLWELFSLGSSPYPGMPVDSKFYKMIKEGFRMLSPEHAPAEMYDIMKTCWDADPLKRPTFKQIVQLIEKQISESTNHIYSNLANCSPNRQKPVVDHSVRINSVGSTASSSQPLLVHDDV
T18 sequence (Q13153 whole entry): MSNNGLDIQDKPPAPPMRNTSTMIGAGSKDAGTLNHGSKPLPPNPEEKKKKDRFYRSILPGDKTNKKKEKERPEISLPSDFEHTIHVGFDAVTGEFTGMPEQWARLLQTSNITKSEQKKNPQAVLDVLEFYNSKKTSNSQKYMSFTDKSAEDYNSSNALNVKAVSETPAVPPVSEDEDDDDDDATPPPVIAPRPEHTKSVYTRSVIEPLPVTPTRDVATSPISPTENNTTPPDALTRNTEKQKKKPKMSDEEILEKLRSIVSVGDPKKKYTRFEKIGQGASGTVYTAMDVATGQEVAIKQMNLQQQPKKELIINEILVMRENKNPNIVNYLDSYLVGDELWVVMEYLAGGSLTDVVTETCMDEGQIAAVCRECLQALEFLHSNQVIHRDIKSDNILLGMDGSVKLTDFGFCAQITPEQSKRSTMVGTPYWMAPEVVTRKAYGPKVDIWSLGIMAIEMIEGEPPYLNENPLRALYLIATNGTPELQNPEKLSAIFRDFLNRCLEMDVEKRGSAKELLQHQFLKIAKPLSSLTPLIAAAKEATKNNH

`COc1cc2c(NC3CCN(C)CC3)cc(-c3ccc(C)o3)nc2cc1OCCCN1CCCC1` [CM-272, 6-methoxy-2-(5-methyl-2-furyl)-N-(1-methyl-4-piperidyl)-7-(3-pyrrolidin-1-ylpropoxy)quinolin-4-amine] was tested, and the remaining binding at 10 µM (CDK11) was 88%, the remaining binding at 10 µM (SNARK) was 12% and the remaining binding at 10 µM (MKNK1) was 1.4%. It also gave a remaining binding at 10 µM (FGFR2) of 100%, a remaining binding at 10 µM (MAPKAPK2) of 87% and a remaining binding at 10 µM (PIK3C2B) of 61%. The remaining binding at 10 µM (TIE2) was 90%, the remaining binding at 10 µM (PDPK1) was 100% and the remaining binding at 10 µM (JNK3) was 8.9%. For the same molecule, the remaining binding at 10 µM (ERK1) was 100%, the remaining binding at 10 µM (ABL1-nonphosphorylated) was 9.4% and the remaining binding at 10 µM (BTK; 10 µM, read-out: Percent Control) was 0.5%. It also gave a Kd (BTK; KINOMEscan) of 1.1 µM, a remaining binding at 10 µM (DYRK1B) of 100% and a remaining binding at 10 µM (MEK2) of 22%. The remaining binding at 10 µM (TGFBR1) was 78%, the remaining binding at 10 µM (CDK7) was 53% and the remaining binding at 10 µM (IKK-alpha) was 45%. For the same molecule, the remaining binding at 10 µM (PAK1) was 69%, the remaining binding at 10 µM (KIT) was 100% and the remaining binding at 10 µM (RAF1) was 73%. It also gave a remaining binding at 10 µM (PIM3) of 81%, a remaining binding at 10 µM (IKK-beta) of 13% and a remaining binding at 10 µM (VEGFR2) of 23%. It also gave a remaining binding at 10 µM (EGFR) of 100%, a GI50 (RT-4) of 0.817 µM and a GI50 (PFEIFFER) of 1.22 µM. The GI50 (UM-UC-1) was 0.842 µM and the GI50 (J82) was greater than 10 µM.
In the case of `COc1cc2c(NCC3CCN(C)CC3)cc(-c3ccc(C)o3)nc2cc1OCCCN1CCCC1` [CM-579, 6-methoxy-2-(5-methyl-2-furyl)-N-[(1-methyl-4-piperidyl)methyl]-7-(3-pyrrolidin-1-ylpropoxy)quinolin-4-amine], the IC50 (hERG potassium channels) is reported as greater than 100 µM.
